Here are results for 1 compound from patent US20100003271A1, “NITRIC OXIDE INCREASES SWITCHING OF T CELLS INTO T REGULATORY CELLS” (BOARD OF REGENTS OF THE UNIVERSITY OF TEXAS SYSTEM, priority 2006, published 2010).

Molecules are shown by their SMILES.

Holding throughout (type): cell-based, human
One assay relates to PBLs. As to the kind of experiment: Generation of CD4+CD25highCD127- Treg cells in PBL culture (FACS). Here is the method: PBLs or purified T cells were either left untreated or treated with 10 μg/ml phytohemagglutanin (PHA, Sigma-Aldrich) at 1×10^6 cells/2 mL in 24-well plates in the absence or presence of various concentrations of SNAP-DMSO, DMSO or SNP and cultured in RPMI-10 for 5 days. Cells were then harvested and stained with anti-human CD4-PerCP, anti-human CD25-APC and anti-human CD127-PE Abs. Flow cytometry analysis measured CD4^+CD25^high CD127^low versus CD4^+CD25^highCD127^high populations using FACSAria with Diva program or FACSCalibur with CellQuest software (BD Pharmingen, San Diego, Calif.).

The subject of another assay is PHA-activated PBLs. As to the kind of experiment: Intracellular FoxP3 staining of CD4+CD25highCD127- population. As to conditions: PHA-activated PBLs, 30, 50, 100 μM SNAP, 5 days, FIG. 3. Here is the method:
Foxp3 intracellular staining was carried out using the FITC anti-human Foxp3 staining kit (BDBiosciences, San Diego, Calif.; Cat no 71-5776-40). In brief, PBLs from various groups were incubated with anti-human CD4-PerCP, anti-human CD25-APC and anti-human CD127-PE Abs for 20 minutes at room temperature for surface staining of CD4, CD25 and CD127 molecules, respectively. Cells were then washed, and fixed with Fix/Perm solution (30 minutes at 4° C.) and permeabilized with permeabilization buffer followed by blocking with rat serum (15 minutes at 4° C.). Cells were then stained with FITC-conjugated anti-FoxP3 or isotype control Ab (30 minutes at 4° C.). Cells were analyzed by flow cytometry for intracellular FoxP3 levels in CD4^+CD25^high/CD127^low versus CD4^+CD25^high/CD127^high cells on a FACSAria.

For another assay, the system named is CD4+CD25- cells. As to the kind of experiment: CFSE labeling and T cell co-culture assay (switching of CD4+CD25- cells). As to conditions: in the presence of Treg cells. Here is the method:
The CD4^+CD25^negative and CD4^+CD25^high T cell populations were isolated from T cells by cell sorting (FACSAria). Next, CD4^+CD25^negative cells were labeled with carboxyfluorescein diacetate succinimidyl ester (CFDA-SE; cat no C1157, Invitrogen) as described elsewhere (Hans et al., 2005). A stock solution of CFSE (5 mM) was diluted with PBS and added to the CD4^+CD25^negative cells at final concentration of 1 µM per 1×10^6 cells (20 minutes at 37° C.). After three washings, CFSE-labeled CD4^+CD25^negative cells (1×10^6) were co-cultured without or with CD4^+CD25^high cells at 10:1 ratio without or with titrated SNAP or DMSO and 6 hours later cells were activated with PHA (10 μg/ml). Following 5 days cells were harvested and stained with anti-human CD25-APC and anti-human CD127-PE Abs to measure transformation of CD^4+CD25^negative cells to CD25^+CD127^negative cells by FACS. The same cells were added to a primary syngeneic MLC at responder/regulator cell ratios (1/0, 1/0.25, 1/0.5, and 1/1). Cells were cultured for 5 days and the [^3H]-thymidine incorporation was measured as described above.

The test system of assay [1] is PBLs challenged with HLA-mismatched alloantigen. As to the kind of experiment: Number of Treg cells generated in alloactivated PBL culture. As to conditions: 100 μM SNAP, 60×10^6 PBLs, 5-day culture, FIG. 5A. Here is the method:
Alloactivation was set up by co-culturing responder PBLs (1-2×10^6 cells/ml) in a total volume of 35 ml of RPMI-10 with fully HLA mismatched gamma-irradiated (30 Gy) stimulators (1:1 ratio) in the presence of SNAP/DMSO. After 5 days, cells were washed and stained with anti-CD4-FITC and anti-CD25-PE Abs to isolate CD4+CD25^high and CD4+CD25^intermediate populations by FACS sorting. These cell populations were then added to fresh syngeneic PBLs (1×10^5) at different responder/regulator cell ratios (1/0, 1/0.005, 1/0.01, 1/0.05, 1/0.1, 1/0.5, and 1/1) with the same HLA-mismatched irradiated stimulators (1×10^5). Cells cultured in a 200 μl volume of RPMI-10 in 96-well round-bottomed plates for 5 days and pulsed with 1 μCi of [^3H]-thymidine for last 16 hours before harvesting. Cells were collected onto glass filters using an automated multi-sample harvester and the amount of [^3H]-thymidine incorporation was measured with a scintillation counter (Packard, Meridan, Conn.). Proliferative responses are expressed as the mean [^3H]-thymidine incorporation (counts per minute [cpm]) of triplicate wells±SD. In identical experiments, PBLs were activated with PHA (10 μg/ml) to examine the ability of NO-induced CD4+CD25^high population to suppress proliferation of alloantigen-specific MLC.

For the compound `CC(=O)NC(C(=O)O)C(C)(C)SN=O` (racemic) [SNAP, S-Nitroso-N-acetyl-DL-penicillamine], the “levels of CD4+CD25+CD127- Treg cells” value with PBLs (PHA-activated PBLs, 5-day culture, FIG. 2B) is recorded as “significantly increased”. Moreover, the “increase in generation of CD4+CD25+CD127-FoxP3+ Treg cells” value in the assay on PBLs (low NO concentrations (10-100 μM nitrite)) came out at 3 fold. Further, the “number of CD4+CD25+CD127- Treg cells” value in the assay on PBLs (non-activated PBLs) is recorded as “did not affect”. Also, in the assay on PHA-activated PBLs, the “generation of Foxp3-positive CD4+CD25+CD127- Treg cells” value was “induces generation of Foxp3-positive”. Moreover, in the assay on CD4+CD25- cells, the “switching of CD4+CD25- cells into CD4+CD25+CD127-FoxP3+ T regulatory (Tr1) cells” value is on record as “elevated switching”. Further, the “number of Treg cells generated relative to culture without SNAP” value in assay [1] is listed as roughly 3 fold.
